# Assay results taken from ChEMBL document CHEMBL1806455, “Synthesis, activity and pharmacokinetics of novel antibacterial 15-membered ring macrolones” (Eur J Med Chem, 2011).
# Tests used:
# Assay type in all cases: functional
# Streptococcus pneumoniae [1] = experiment: Antibacterial activity against inducible macrolide-resistant, constitutive lincosamide, streptogramin-resistant Streptococcus pneumoniae 134 GR M by broth microdilution method
# Streptococcus pyogenes [2] = experiment: Antibacterial activity against inducible macrolide-lincosamide-streptogramin B resistant Streptococcus pyogenes Finland 11 by broth microdilution method
# Haemophilus influenzae = experiment: Antibacterial activity against Haemophilus influenzae ATCC 49247 by broth microdilution method
# Streptococcus pyogenes [3] = experiment: Antibacterial activity against macrolide, lincosamide, streptogramin-resistant Streptococcus pyogenes 166 GR-Micro by broth microdilution method
# Moraxella catarrhalis = experiment: Antibacterial activity against Moraxella catarrhalis ATCC 23246 by broth microdilution method
# Staphylococcus aureus [4] = experiment: Antibacterial activity against erythromycin-sensitive Staphylococcus aureus ATCC 13709 by broth microdilution method
# Streptococcus pneumoniae [5] = experiment: Antibacterial activity against constitutive macrolide, lincosamide, streptogramin-resistant Streptococcus pneumoniae 58 spain by broth microdilution method
# Streptococcus pyogenes [6] = experiment: Antibacterial activity against erythromycin-sensitive Streptococcus pyogenes 3565 by broth microdilution method
# Streptococcus pneumoniae [7] = experiment: Antibacterial activity against erythromycin-sensitive Streptococcus pneumoniae SP030 by broth microdilution method
# Staphylococcus aureus [8] = experiment: Antibacterial activity against constitutive macrolide, lincosamide, streptogramin-resistant Staphylococcus aureus PK2 by broth microdilution method
# Staphylococcus aureus [9] = experiment: Antibacterial activity against inducible macrolide-lincosamide-streptogramin B resistant Staphylococcus aureus 90256 by broth microdilution method
# Staphylococcus aureus [10] = experiment: Antibacterial activity against efflux-mediated macrolide-resistant Staphylococcus aureus PK1 by broth microdilution method
# Streptococcus pyogenes [11] = experiment: Antibacterial activity against efflux-mediated macrolide-resistance Streptococcus pyogenes 2 Finland by broth microdilution method
# Streptococcus pneumoniae [12] = experiment: Antibacterial activity against efflux-mediated macrolide-resistant Streptococcus pneumoniae Ci137 by broth microdilution method
Compound,MIC (Streptococcus pneumoniae [1]),MIC (Streptococcus pyogenes [2]),MIC (Haemophilus influenzae),MIC (Streptococcus pyogenes [3]),MIC (Moraxella catarrhalis),MIC (Staphylococcus aureus [4]),MIC (Streptococcus pneumoniae [5]),MIC (Streptococcus pyogenes [6]),MIC (Streptococcus pneumoniae [7]),MIC (Staphylococcus aureus [8]),MIC (Staphylococcus aureus [9]),MIC (Staphylococcus aureus [10]),MIC (Streptococcus pyogenes [11]),MIC (Streptococcus pneumoniae [12])
CC[C@H]1OC(=O)[C@H](C)[C@@H](O[C@H]2C[C@@](C)(OC)[C@@H](OC(=O)CCOCCOc3ccc4c(c3)c(=O)c(C(=O)OCC(C)=O)cn4C3CC3)[C@H](C)O2)[C@H](C)[C@@H](O[C@@H]2O[C@H](C)C[C@H](N(C)C)[C@H]2O)[C@](C)(O)C[C@@H](C)CN(C)[C@H](C)[C@@H](O)[C@]1(C)O,0.25 µg/mL,≤ 0.125 µg/mL,2 µg/mL,≤ 0.125 µg/mL,1 µg/mL,0.5 µg/mL,0.5 µg/mL,≤ 0.125 µg/mL,≤ 0.125 µg/mL,64 µg/mL,2 µg/mL,1 µg/mL,≤ 0.125 µg/mL,0.25 µg/mL
CC[C@H]1OC(=O)[C@H](C)[C@@H](O[C@H]2C[C@@](C)(OC)[C@@H](OC(=O)CCOCCNc3cc4c(=O)c(C(=O)OC(C)C)cn(C5CC5)c4cc3Cl)[C@H](C)O2)[C@H](C)[C@@H](O[C@@H]2O[C@H](C)C[C@H](N(C)C)[C@H]2O)[C@](C)(O)C[C@@H](C)CN(C)[C@H](C)[C@@H](O)[C@]1(C)O,≤ 0.125 µg/mL,≤ 0.125 µg/mL,2 µg/mL,≤ 0.125 µg/mL,,0.5 µg/mL,≤ 0.125 µg/mL,≤ 0.125 µg/mL,≤ 0.125 µg/mL,> 64 µg/mL,2 µg/mL,2 µg/mL,≤ 0.125 µg/mL,≤ 0.125 µg/mL
CC[C@H]1OC(=O)[C@H](C)[C@@H](O[C@H]2C[C@@](C)(OC)[C@@H](OC(=O)CCOCCOc3cc4c(=O)c(C(=O)OCOC(=O)C(C)(C)C)cn(C5CC5)c4cc3Cl)[C@H](C)O2)[C@H](C)[C@@H](O[C@@H]2O[C@H](C)C[C@H](N(C)C)[C@H]2O)[C@](C)(O)C[C@@H](C)CN(C)[C@H](C)[C@@H](O)[C@]1(C)O,0.25 µg/mL,≤ 0.125 µg/mL,4 µg/mL,≤ 0.125 µg/mL,4 µg/mL,1 µg/mL,≤ 0.125 µg/mL,≤ 0.125 µg/mL,≤ 0.125 µg/mL,> 64 µg/mL,4 µg/mL,2 µg/mL,≤ 0.125 µg/mL,≤ 0.125 µg/mL
CC[C@H]1OC(=O)[C@H](C)[C@@H](O[C@H]2C[C@@](C)(OC)[C@@H](OC(=O)CCOCCOc3ccc4c(c3)c(=O)c(C(=O)O)cn4C3CC3)[C@H](C)O2)[C@H](C)[C@@H](O[C@@H]2O[C@H](C)C[C@H](N(C)C)[C@H]2O)[C@](C)(O)C[C@@H](C)CN(C)[C@H](C)[C@@H](O)[C@]1(C)O,≤ 0.125 µg/mL,≤ 0.125 µg/mL,0.5 µg/mL,0.25 µg/mL,0.5 µg/mL,≤ 0.125 µg/mL,≤ 0.125 µg/mL,≤ 0.125 µg/mL,≤ 0.125 µg/mL,32 µg/mL,1 µg/mL,0.25 µg/mL,≤ 0.125 µg/mL,≤ 0.125 µg/mL
CC[C@H]1OC(=O)[C@H](C)[C@@H](O[C@H]2C[C@@](C)(OC)[C@@H](OC(=O)CCOCCOc3cc4c(=O)c(C(=O)O)cn(C5CC5)c4cc3Cl)[C@H](C)O2)[C@H](C)[C@@H](O[C@@H]2O[C@H](C)C[C@H](N(C)C)[C@H]2O)[C@](C)(O)C[C@@H](C)CN(C)[C@H](C)[C@@H](O)[C@]1(C)O,0.25 µg/mL,≤ 0.125 µg/mL,1 µg/mL,0.25 µg/mL,1 µg/mL,0.25 µg/mL,0.5 µg/mL,≤ 0.125 µg/mL,≤ 0.125 µg/mL,> 64 µg/mL,0.5 µg/mL,0.5 µg/mL,≤ 0.125 µg/mL,≤ 0.125 µg/mL
CC[C@H]1OC(=O)[C@H](C)[C@@H](O[C@H]2C[C@@](C)(OC)[C@@H](OC(=O)CCOCCNc3ccc4c(c3)c(=O)c(C(=O)OCCN3CCCCC3)cn4C3CC3)[C@H](C)O2)[C@H](C)[C@@H](O[C@@H]2O[C@H](C)C[C@H](N(C)C)[C@H]2O)[C@](C)(O)C[C@@H](C)CN(C)[C@H](C)[C@@H](O)[C@]1(C)O,≤ 0.125 µg/mL,≤ 0.125 µg/mL,8 µg/mL,≤ 0.125 µg/mL,1 µg/mL,0.25 µg/mL,≤ 0.125 µg/mL,≤ 0.125 µg/mL,≤ 0.125 µg/mL,> 64 µg/mL,4 µg/mL,1 µg/mL,≤ 0.125 µg/mL,≤ 0.125 µg/mL
CC[C@H]1OC(=O)[C@H](C)[C@@H](O[C@H]2C[C@@](C)(OC)[C@@H](OC(=O)CCOCCOCCNc3cc4c(=O)c(C(=O)O)cn(C(C)C)c4cc3Cl)[C@H](C)O2)[C@H](C)[C@@H](O[C@@H]2O[C@H](C)C[C@H](N(C)C)[C@H]2O)[C@](C)(O)C[C@@H](C)CN(C)[C@H](C)[C@@H](O)[C@]1(C)O,0.25 µg/mL,≤ 0.125 µg/mL,1 µg/mL,1 µg/mL,1 µg/mL,≤ 0.125 µg/mL,≤ 0.125 µg/mL,≤ 0.125 µg/mL,≤ 0.125 µg/mL,64 µg/mL,0.25 µg/mL,≤ 0.125 µg/mL,≤ 0.125 µg/mL,≤ 0.125 µg/mL
CC[C@H]1OC(=O)[C@H](C)[C@@H](O[C@H]2C[C@@](C)(OC)[C@@H](OC(=O)CCOCCOCCNc3ccc4c(c3)c(=O)c(C(=O)O)cn4CC)[C@H](C)O2)[C@H](C)[C@@H](O[C@@H]2O[C@H](C)C[C@H](N(C)C)[C@H]2O)[C@](C)(O)C[C@@H](C)CN(C)[C@H](C)[C@@H](O)[C@]1(C)O,1 µg/mL,≤ 0.125 µg/mL,2 µg/mL,≤ 0.125 µg/mL,2 µg/mL,0.25 µg/mL,≤ 0.125 µg/mL,≤ 0.125 µg/mL,≤ 0.125 µg/mL,64 µg/mL,0.25 µg/mL,≤ 0.125 µg/mL,≤ 0.125 µg/mL,≤ 0.125 µg/mL
CC[C@H]1OC(=O)[C@H](C)[C@@H](O[C@H]2C[C@@](C)(OC)[C@@H](OC(=O)CCOCCOCCNc3ccc4c(c3)c(=O)c(C(=O)O)cn4C3CC3)[C@H](C)O2)[C@H](C)[C@@H](O[C@@H]2O[C@H](C)C[C@H](N(C)C)[C@H]2O)[C@](C)(O)C[C@@H](C)CN(C)[C@H](C)[C@@H](O)[C@]1(C)O,≤ 0.125 µg/mL,≤ 0.125 µg/mL,0.5 µg/mL,≤ 0.125 µg/mL,0.25 µg/mL,≤ 0.125 µg/mL,≤ 0.125 µg/mL,≤ 0.125 µg/mL,≤ 0.125 µg/mL,16 µg/mL,0.5 µg/mL,≤ 0.125 µg/mL,≤ 0.125 µg/mL,≤ 0.125 µg/mL
CC[C@H]1OC(=O)[C@H](C)C(=O)[C@H](C)[C@@H](O[C@@H]2O[C@H](C)C[C@H](N(C)C)[C@H]2O)[C@](C)(OC)C[C@@H](C)C(=O)[C@H](C)[C@H]2N(CCCCn3cnc(-c4cccnc4)c3)C(=O)O[C@]12C [TELITHROMYCIN],0.25 µg/mL,0.06 µg/mL,2 µg/mL,16 µg/mL,≤ 0.125 µg/mL,0.125 µg/mL,0.25 µg/mL,≤ 0.125 µg/mL,≤ 0.125 µg/mL,> 64 µg/mL,≤ 0.125 µg/mL,≤ 0.125 µg/mL,0.5 µg/mL,0.25 µg/mL
CCCOC(=O)c1cn(C2CC2)c2cc(Cl)c(NCCOCCC(=O)O[C@H]3[C@H](C)O[C@@H](O[C@H]4[C@H](C)[C@@H](O[C@@H]5O[C@H](C)C[C@H](N(C)C)[C@H]5O)[C@](C)(O)C[C@@H](C)CN(C)[C@H](C)[C@@H](O)[C@](C)(O)[C@@H](CC)OC(=O)[C@@H]4C)C[C@@]3(C)OC)cc2c1=O,≤ 0.125 µg/mL,≤ 0.125 µg/mL,4 µg/mL,≤ 0.125 µg/mL,2 µg/mL,1 µg/mL,≤ 0.125 µg/mL,≤ 0.125 µg/mL,≤ 0.125 µg/mL,> 64 µg/mL,1 µg/mL,1 µg/mL,≤ 0.125 µg/mL,≤ 0.125 µg/mL
CCC(=O)CNC(=O)COC(=O)c1cn(C2CC2)c2ccc(NCCOCCC(=O)O[C@H]3[C@H](C)O[C@@H](O[C@H]4[C@H](C)[C@@H](O[C@@H]5O[C@H](C)C[C@H](N(C)C)[C@H]5O)[C@](C)(O)C[C@@H](C)CN(C)[C@H](C)[C@@H](O)[C@](C)(O)[C@@H](CC)OC(=O)[C@@H]4C)C[C@@]3(C)OC)cc2c1=O,≤ 0.125 µg/mL,≤ 0.125 µg/mL,4 µg/mL,≤ 0.125 µg/mL,,1 µg/mL,≤ 0.125 µg/mL,≤ 0.125 µg/mL,≤ 0.125 µg/mL,> 64 µg/mL,16 µg/mL,8 µg/mL,≤ 0.125 µg/mL,≤ 0.125 µg/mL
CCCOC(=O)c1cn(C2CC2)c2ccc(NCCOCCC(=O)O[C@H]3[C@H](C)O[C@@H](O[C@H]4[C@H](C)[C@@H](O[C@@H]5O[C@H](C)C[C@H](N(C)C)[C@H]5O)[C@](C)(O)C[C@@H](C)CN(C)[C@H](C)[C@@H](O)[C@](C)(O)[C@@H](CC)OC(=O)[C@@H]4C)C[C@@]3(C)OC)cc2c1=O,≤ 0.125 µg/mL,≤ 0.125 µg/mL,2 µg/mL,≤ 0.125 µg/mL,,0.5 µg/mL,≤ 0.125 µg/mL,≤ 0.125 µg/mL,≤ 0.125 µg/mL,> 64 µg/mL,4 µg/mL,2 µg/mL,≤ 0.125 µg/mL,≤ 0.125 µg/mL
